One test concerns Adjuvansarthritis. The test can be described thus: Adjuvant arthritis test in the rat. It is filed as in vivo. The settings on record: po, Ratten, peroral, read-out: hoch aktiv bei peroralen Dosen bis hinunter zu. The source says:
Die Verbindungen der Erfindung zeigen wertvolle pharmakologische Eigenschaften, in erster Linie antiinflammatorische und antiarthritische Wirkungen. Diese können in in-vitro oder in-vivo Versuchen nachgewiesen werden. In den letzteren werden vorzugsweise Säugetiere, z.B. Ratten, Katzen, Meerschweinchen oder Hunde als Testobjekte verwendet. Die Verbindungen der Erfindung können ihnen enteral, vorzugsweise oral, parenteral, z.B. subkutan oder intravenös, oder topisch, z.B. in Form von Lösungen in Wasser oder Oel, oder in Form von Stärke enthaltenden Suspensionen, verabreicht werden. Die verwendete Dosis kann in einem Bereich von ungefähr zwischen 0,1 und 100 mg/kg/Tag, vorzugsweise ungefähr 1 und 50 mg/kg/Tag, in erster Linie ungefähr 2 und. 25 mg/kg/Tag, liegen. Die für die genannten Wirkungen gewählten Tests sind entweder klassische Versuchsmethoden, z.B.der Carrageenin-Pfotenödem- oder der Adjuvansarthritis-Test in der Ratte, der Synoviitis-Versuch am Hund oder der Test, in welchem das durch ultraviolettes Licht hervorgerufene Erythem ausgewertet wird, oder moderne Testmethoden. Solche sind die neutrale Protease Hemmung [beschrieben in Arthritis Rheum. 17, 47 (1974)] oder die Hemmung der Leukozyten Chemotaxis [N.Y.Acad. Sci., 256, 177 (1975)]. […]

The subject of test [1] is BCG-immunisierten Makrophagen. It is filed as cell-based, Charles River-Ratten. The following applies: in vitro, result in words.

Take `Cn1cccc1C(=O)C(C#N)C(=O)Nc1ccccc1` (stereo not drawn) [1-Methyl-β-oxo-α-phenylcarbamoyl-2-pyrrol-propionitril]: in the test with Adjuvansarthritis, the minimal effective dose was ≥ 2 mg/kg/day.

Turning to `COc1ccc2c(c1)c(CC(=O)O)c(C)n2C(=O)c1ccc(Cl)cc1` [Indomethacin], in test [1], the “Einfluss auf die Makrophagen-Chemotaxis” value was “beeinflusst das Indomethacin die Makrophagen-Chemotaxis nicht”.

The values above are taken from patent EP0021207A1, “Alphacarbamoyl-pyrrolpropionitriles, process for their preparation and pharmaceutical preparations containing them” (priority 1979, dated 1981).
